SMILES | melting point
CCN(CC)C(=N)NC(=O)c1cccc(C2=NC3CCCCC3c3cc(OC)c(OC)cc32)c1 [Compound 12, N′-{1[3-((4aR,10bR)-8,9-Dimethoxy-1,2,3,4,a,10b-hexahydrophenanthridin-6-yl)-phenyl]-methanoyl}-N,N-diethylquanidine] | 89 to 91 °C
CCN(CC)C(=N)NC(=O)c1ccc(C2=N[C@@H]3CCCC[C@@H]3c3cc(OC)c(OC)cc32)cc1 [Compound 1, N′-{-[4-((4aR,10bR)-8,9-Dimethoxy-1,2,3,4,4a,10b-hexahydrophenanthridin-6yl)-phenyl]-methanoyl}-N,N-diethylquanidine] | 132 to 135 °C
COc1cc2c(cc1OC)C1CCCCC1N=C2c1ccc(C(=O)NC(=N)N2CCCC2)cc1 [Compound 9, 4-((4aR,10bR)-8,9-Dimethoxy-1,2,3,4,4a.10b-hexahydro-phenanthridin-6-yl)-N-(1-imino-1-pyrrolidin-1-yl-methyl)-benzamide] | 126 °C
COc1cc2c(cc1OC)[C@H]1CCCC[C@H]1N=C2c1cccc(C(=O)NC(=N)N2CCOCC2)c1 [Compound 13, 3-((4aR,10bR)-8,9-Dimethoxy-1,2,3,4,4a,10b-hexahydrophenanthridin-6-yl)-N-(1-imino-1-morpholin-4yl-methyl)-benzamide] | 187 to 188 °C

Other lines, results leading:

melting point | SMILES
179 to 180 °C | COc1cc2c(cc1OC)[C@H]1CCCC[C@H]1N=C2c1ccc(C(=O)NC(=N)n2nc(C)cc2C)cc1 [Compound 11, 4((4aR,10bR)-8,9-Dimethoxy-1,2,3,4,4a,10b-hexahydro-phenanthridin-6-yl)-N-[1-(3,5-dimethyl-pyrazol-1-yl)-1-imino-methyl]-benzamide]
133 °C | COc1cc2c(cc1OC)C1CCCCC1N=C2c1ccc(C(=O)NC(=N)N2CCN(C)CC2)cc1 (stereo not drawn) [Compound 5]

From patent US20060116518A1, “Novel phenanthridines” (Altana Pharma AG, priority 2002, published 2006)
